Laboratory results from US20110034504A1, “AGENT FOR PREVENTING AND/OR TREATING VASCULAR DISEASES” (Astellas Pharma Inc., priority 2008, published 2011).
Where two headings read alike, the source gives them in different places.

Experiments:
[1] = combination use of aspirin and clopidogrel, cited from earlier work
gastric mucosa = test: influence of drugs upon gastric mucosa in normal guinea pigs; assay type: in vivo, guinea pig; conditions: for gastric mucosal lesion (length): 3 hours after administration
Procedure: Examination of the influence of drugs exerting upon gastric mucosa was carried out using normal guinea pigs. Using 0.5% methyl cellulose solution as the vehicle, clopidogrel solution, aspirin suspension and Compound A suspension were prepared. […] Also, in the evaluation at the time of concomitant administration of clopidogrel with aspirin or Compound A, in addition to 3 mg/kg of clopidogrel, 300 mg/kg of aspirin was simultaneously administered in the aspirin concomitant use group, and 100 mg/kg of Compound A in the Compound A concomitant use group. After 3 hours of the administration, each guinea pig was sacrificed by deep anesthesia with carbon dioxide, and the stomach was quickly removed. The gullet part of the extracted stomach was ligated, 15 ml of 4% neutral buffered formalin solution was injected from the pylorus part, and then light fixation was carried out by immersing in the same solution for about 1 hour after ligating the pylorus part. Thereafter, the stomach was cut open along the greater curvature of stomach, and the length (mm) of gastric mucosal lesion was measured using a stereoscopic microscope. Statistical analysis between respective groups was performed by using Wilcoxon rank sum test.

[2] = system: iron chloride-induced thrombus (abdominal aorta); test: ferric chloride-induced thrombosis model in guinea pigs; assay type: in vivo, guinea pig; conditions: for total protein content of thrombi, comparison with control (vehicle administration group): single drug, Student's t-test; for total protein content of thrombi, concomitant administration compared with single administration groups: oral
Procedure: Verification of anti-thrombotic action was carried out using a ferric chloride-induced thrombosis model in guinea pigs, by partially modifying the experiment described in “Thrombosis Research” (1990, vol. 60, p. 269-280). Using 0.5% methyl cellulose solution as the vehicle, clopidogrel solution, aspirin suspension and Compound A suspension were prepared. […] Thrombus was induced by the following procedure. Each guinea pig was laparotomized while under pentobarbital anesthesia, and abdominal aorta was carefully detached from the surrounding tissues. […] The filter paper was removed 10 minutes thereafter, followed by 45 minutes of standing under subdued light. Both ends of the injured part of the detached blood vessel were closed with clips, and inside thereof was cut out using scissors to collect the blood vessel. By cutting open the thus collected blood vessel vertically, the thrombi formed in the blood vessel were taken out using a pair of tweezers and dissolved in 0.5 mol/1 of NaOH. Protein concentration was determined using DC protein assay kit (mfd. by BIO-RAD Laboratories) and in accordance with the protocols. Using total protein content of the formed thrombi as the index of anti-thrombotic effect, Statistical analysis between respective groups was performed by using Student's t-test.

[3] = thromboembolism patients, CAPRIE trial; cited from earlier work
[4] = clopidogrel combined with aspirin, cited from earlier work
COX-2 = target: T1, COX-2 (Cavia porcellus, UniProt P70682); test: LPS-induced Prostaglandin E2 (PGE2) production inhibition using guinea pig whole blood after oral administration; assay type: in vivo; conditions: read-out: inhibitory rate of LPS-induced PGE2 production relative to the vehicle group
T1 construct: The sodium citrate-added whole blood was mixed with LPS to a final concentration of 100 μg/ml, incubated at 37° C. for 24 hours; from tissue; host or cells: citrated whole blood of male Hartley guinea pigs, stimulated with LPS
T1 sequence (P70682 18-604): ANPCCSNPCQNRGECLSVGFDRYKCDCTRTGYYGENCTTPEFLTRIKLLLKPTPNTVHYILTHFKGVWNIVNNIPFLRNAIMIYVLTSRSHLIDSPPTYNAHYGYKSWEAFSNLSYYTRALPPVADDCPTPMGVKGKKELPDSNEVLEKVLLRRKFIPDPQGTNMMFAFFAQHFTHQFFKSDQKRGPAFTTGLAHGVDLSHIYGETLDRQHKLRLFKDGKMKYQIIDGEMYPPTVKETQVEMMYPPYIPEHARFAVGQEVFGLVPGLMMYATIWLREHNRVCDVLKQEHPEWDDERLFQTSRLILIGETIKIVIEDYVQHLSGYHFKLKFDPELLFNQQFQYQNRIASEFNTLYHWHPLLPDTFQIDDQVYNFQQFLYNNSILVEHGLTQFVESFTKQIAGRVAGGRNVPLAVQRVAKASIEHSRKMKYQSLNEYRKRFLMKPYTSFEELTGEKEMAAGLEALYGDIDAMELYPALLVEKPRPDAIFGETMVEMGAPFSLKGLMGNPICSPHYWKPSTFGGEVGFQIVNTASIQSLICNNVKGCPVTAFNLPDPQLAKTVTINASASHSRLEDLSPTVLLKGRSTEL
Procedure: Examination on the selectivity of inhibitory effect on Cyclooxygenase (COX)-½ was carried out based on, as indexes, the coagulation-induced Thromboxane B2 (TXB2) production inhibition (COX-1 inhibition) and the LPS-induced Prostaglandin E2 (PGE2) production inhibition using guinea pig whole blood. As the vehicle, 0.5% methyl cellulose solution was used. […] On the other hand, as the vehicle administration group, clopidogrel was orally administered 2 hours before the blood collection, and the vehicle 1 hour before thereof. Each guinea pig was laparotomized while under ether anesthesia, 4 ml of blood was collected from the abdominal aorta, and 1 ml thereof was put into an anticoagulant-un-added tube and allowed to stand still and then 3 ml thereof was put into a tube charged with 300 μl of sodium citrate, followed by tipping mixing. […] PGE2 concentration in the buffer was measured using a PGE2 EIA Kit (mfd. by Cayman Chemicals). Inhibitory rate of each of the TXB2 concentration and PGE2 concentration relative to the vehicle group was calculated using a calculation formula [100-(drug administration group concentration/solvent administration concentration)×100 (%)], and significant difference from the vehicle group was tested using Student's t-test.

COX-1 = target: T2, COX-1 (Cavia porcellus, UniProt H0V9X9); test: coagulation-induced Thromboxane B2 (TXB2) production inhibition using guinea pig whole blood after oral administration; assay type: in vivo; conditions: concomitant use with 1 mg/kg of clopidogrel, read-out: inhibitory rate of coagulation-induced TXB2 production relative to the vehicle group
T2 construct: from tissue; host or cells: whole blood from the abdominal aorta of male Hartley guinea pigs
T2 sequence (H0V9X9 25-553): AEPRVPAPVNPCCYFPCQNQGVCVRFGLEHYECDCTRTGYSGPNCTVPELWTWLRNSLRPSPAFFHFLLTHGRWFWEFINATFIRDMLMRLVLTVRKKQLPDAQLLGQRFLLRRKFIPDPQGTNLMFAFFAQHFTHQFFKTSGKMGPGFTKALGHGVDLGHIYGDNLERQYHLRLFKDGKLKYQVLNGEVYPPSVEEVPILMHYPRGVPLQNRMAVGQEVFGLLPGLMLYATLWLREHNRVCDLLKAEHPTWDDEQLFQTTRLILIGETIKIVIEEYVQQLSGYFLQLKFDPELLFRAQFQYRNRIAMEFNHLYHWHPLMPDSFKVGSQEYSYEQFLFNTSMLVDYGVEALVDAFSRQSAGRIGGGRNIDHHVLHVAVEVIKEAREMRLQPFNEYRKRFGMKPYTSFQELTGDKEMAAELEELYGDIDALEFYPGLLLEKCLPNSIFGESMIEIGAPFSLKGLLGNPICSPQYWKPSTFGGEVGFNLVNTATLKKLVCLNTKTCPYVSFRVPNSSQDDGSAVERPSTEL
Procedure: Examination on the selectivity of inhibitory effect on Cyclooxygenase (COX)-½ was carried out based on, as indexes, the coagulation-induced Thromboxane B2 (TXB2) production inhibition (COX-1 inhibition) and the LPS-induced Prostaglandin E2 (PGE2) production inhibition using guinea pig whole blood. As the vehicle, 0.5% methyl cellulose solution was used. By dissolving clopidogrel and suspending aspirin and Compound A therein, clopidogrel was orally administered 2 hours before the blood collection, and aspirin and Compound A 1 hour before thereof, to male Hartley guinea pigs which had been subjected to fasting (drug administered groups). On the other hand, as the vehicle administration group, clopidogrel was orally administered 2 hours before the blood collection, and the vehicle 1 hour before thereof. […] TXB2 concentration in the serum was measured using a TXB2 EIA Kit (mfd. by Cayman Chemicals). […] PGE2 concentration in the buffer was measured using a PGE2 EIA Kit (mfd. by Cayman Chemicals). Inhibitory rate of each of the TXB2 concentration and PGE2 concentration relative to the vehicle group was calculated using a calculation formula [100-(drug administration group concentration/solvent administration concentration)×100 (%)], and significant difference from the vehicle group was tested using Student's t-test.

[5] = cited from earlier work

SMILES: COC(=O)[C@H](c1ccccc1Cl)N1CCc2sccc2C1 [clopidogrel, methyl (+)-(S)-2-(2-chlorophenyl)-2-(4,5,6,7-tetrahydrothieno[3,2-c]pyridin-5-yl)acetate]
- primary prevention effect ([1]; low risk patients): usefulness of the combination group was not found
- secondary thrombotic event inhibition effect ([1]; patients of ischemic diseases): significant secondary thrombotic event inhibition effect
- gastric mucosal lesion (length) (gastric mucosa; 100 mg/kg oral, single drug): a clear action for gastric mucosa cannot be confirmed
- total protein content of thrombi, comparison with control (vehicle administration group) ([2]; clopidogrel 1 mg/kg orally 2 hours before thrombus induction): statistically significant difference
- event onset ratio [3]: 5.83 %/year
- lowering of the event onset ratio based on aspirin [3]: 8.7%
- reduction of event ratio in combination use group in comparison with the aspirin alone group ([4]; non-ST increase ACS patients): 20%
- hemorrhagic side effects in the combination use group [4]: significantly increased

SMILES: COc1ccc(-c2nc(OC)nn2-c2ccc(OC)cc2)cc1 [Compound A, 3-methoxy-1,5-bis(4-methoxyphenyl)-1H-1,2,4-triazole]
- inhibition at 3 mg/kg (COX-2; 3 mg/kg Compound A orally, concomitant use with 1 mg/kg of clopidogrel): 10.1%
- gastric mucosal lesion (length) (gastric mucosa; 100 mg/kg oral, single drug): a clear action for gastric mucosa cannot be confirmed
- gastric mucosal lesion (length) (gastric mucosa; Compound A 100 mg/kg concomitantly with clopidogrel 3 mg/kg, oral): a clear action for gastric mucosa cannot be confirmed
- total protein content of thrombi, compared with concomitant administration group of clopidogrel and aspirin ([2]; 3 mg/kg Compound A + 1 mg/kg clopidogrel vs 300 mg/kg aspirin + 1 mg/kg clopidogrel): statistically significant difference from a concomitant administration group of clopidogrel and aspirin
- total protein content of thrombi, concomitant administration compared with single administration groups ([2]; 3 mg/kg Compound A concomitantly with 1 mg/kg clopidogrel): statistically significant difference from the clopidogrel single administration group (CLO 1) and Compound A single administration group (Comp A 3)
- total protein content of thrombi, comparison with control (vehicle administration group) ([2]; Compound A 3 mg/kg orally 1 hour before thrombus induction): statistically significant difference
- inhibition at 3 mg/kg (COX-1; 3 mg/kg Compound A orally): 82.1%

SMILES: CC(=O)Oc1ccccc1C(=O)O [aspirin]
- inhibition at 300 mg/kg (COX-2): 90.4%
- gastric mucosal lesion (length) (gastric mucosa; 300 mg/kg oral, single drug): Gastric mucosal damage was clearly formed
- gastric mucosal damage at concomitant administration with clopidogrel compared with aspirin alone (gastric mucosa; aspirin 300 mg/kg + clopidogrel 3 mg/kg vs aspirin 300 mg/kg alone): becomes worse
- gastric mucosal lesion (length) (gastric mucosa; aspirin 300 mg/kg concomitantly with clopidogrel 3 mg/kg, oral): Gastric mucosal damage was also clearly induced
- event inhibition ratio ([5]; 75 mg or less, meta-analysis): 13%
- event inhibition ratio ([5]; administration of from 75 to 150 mg, meta-analysis): 32%
- event inhibition ratio ([5]; administration of from 160 to 325 mg, meta-analysis): 26%
- event inhibition ratio ([5]; administration of from 500 to 1500 mg, meta-analysis): 19%
- event inhibition ratio ([5]; high risk patients, low dose aspirin): about 25%
- total protein content of thrombi, concomitant administration compared with single administration groups ([2]; 300 mg/kg aspirin concomitantly with 1 mg/kg clopidogrel): significant difference from the clopidogrel single administration group (CLO 1), but a significant difference was not found in comparison with the aspirin single administration group (ASA 300)
- total protein content of thrombi, comparison with control (vehicle administration group) ([2]; aspirin 300 mg/kg orally 1 hour before thrombus induction): statistically significant difference
- event onset ratio [3]: 5.32 %/year
- inhibition at 300 mg/kg (COX-1; 300 mg/kg aspirin orally): 100%
